Experimental findings from patent US9533983B2, “Antiplatelet agent” (Mitsubishi Tanabe Pharma Corporation, priority 2009, dated 2017) are described below.

Usually IC50 stands for the concentration needed to halve the response being measured.

Holding throughout (assay type): cell-based
What all share (settings): Cavia porcellus, guinea pig PRP

Assay [1] has as its system ADP-Induced Platelet Aggregation. The assay is described as follows: Platelet aggregation inhibitory activity: ADP-induced platelet aggregation in platelet rich plasma. Here is the method:
A blood of a guinea pig was sampled by using a 1/10 volume of a 3.8% sodium citrate as a platelet aggregation inhibitor, and a platelet rich plasma (PRP) was separated by centrifuging the blood sample at 1100 rpm for 10 min. After fractionating the PRP in the upper layer, the lower layer was centrifuged at 3000 rpm for 10 min to fractionate the platelet poor plasma (PPP). To 100 μL of PRP, a 1 μL solution of each compound was added, and after still standing at 37° C. for 1 min, the mixture was stirred at 37° C. for 1 min by a stirrer. Then, 11 μL of collagen, ristocetin, or ADP was added thereto to induce the platelet aggregation. The platelet aggregation ability was measured by using the mCM hematolaser 313M (L-M-S Inc.). Based on the assumption that a light transmittance of PPP corresponds to a 100% coagulation value, an aggregation rate at each concentration of the compound was determined, then, an IC50 value was calculated therefrom.
[Platelet Aggregation Inhibitory Activities: ADP-Induced Platelet Aggregation]

The subject of assay [2] is Collagen-Induced Platelet Aggregation. In words: Platelet aggregation inhibitory activity: collagen-induced platelet aggregation in platelet rich plasma. In a few lines: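 Guinea-pig citrated platelet-rich plasma incubated with compound 1 min at 37° C, stirred 1 min, then aggregation induced with collagen and measured by light transmittance, platelet-poor plasma set as 100%. Aggregation rates at each concentration gave the IC50.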

For assay [3], the system named is Ristocetin-Induced Platelet Aggregation. In words: Platelet aggregation inhibitory activity: ristocetin-induced platelet aggregation in platelet rich plasma. In a few lines: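 Guinea pig citrated platelet-rich plasma preincubated with compound at 37 °C for 1 min, stirred 1 min, then aggregation induced with ristocetin. Light transmittance measured with PPP set as 100%. IC50 derived from aggregation rates across compound concentrations.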

On to `COc1ccc(-n2c(-c3ccc(F)cn3)nc3cc(OC(F)(F)F)cnc32)cn1` [Example 177, 2-(5-fluoropyridin-2-yl)-3-(6-methoxypyridin-3-yl)-6-(trifluoromethoxy)-3H-imidazo[4,5-b]pyridine], for which the values for the half-inhibitory concentration (IC50) in assay [1], in assay [2] and in assay [3] were above 10000 nM, 21 nM and 11 nM, respectively.
Turning to `COc1ccc(-n2c(-c3ccc(F)cn3)nc3cc(OC(F)F)cnc32)cn1` [Example 178], the IC50 in assay [1] is above 10000 nM; in assay [2], 94 nM; in assay [3], 47 nM.
`COc1ccc(-c2c(-c3ccccn3)nc3cc(C(F)(F)F)cnn23)cn1` [Example 179, 3-(6-methoxypyridin-3-yl)-2-pyridin-2-yl-7-(trifluoromethyl)imidazo[1,2-b]pyridazine]: the results for the half-inhibitory concentration (IC50) in assay [1], in assay [2] and in assay [3] were above 10000 nM, 75 nM and 34 nM, respectively.
As for `COc1ccc(-c2c(-c3ccccn3)nn3cc(C(F)(F)F)cnc23)cn1` [Example 180, 3-(6-methoxypyridin-3-yl)-2-pyridin-2-yl-6-(trifluoromethyl)pyrazolo[1,5-a]pyrimidine], the IC50 was above 10000 nM in assay [1], 55 nM in assay [2] and 14 nM in assay [3].
In the same order, the values of `COc1ccc(-c2c(-c3ccc(F)cn3)nc3cc(C(F)(F)F)cnn23)cn1` [Example 181, 2-(5-fluoropyridin-2-yl)-3-(6-methoxypyridin-3-yl)-7-(trifluoromethyl)imidazo[1,2-b]pyridazine] are above 10000 nM, 33 nM and 27 nM.
In the same order, the values of `COc1ccc(-n2c(-c3ccccn3)cc3cc(C(F)(F)F)cnc32)cn1` [Example 183, 1-(6-methoxypyridin-3-yl)-2-pyridin-2-yl-5-(trifluoromethyl)-1H-pyrrolo[2,3-b]pyridine] are above 10000 nM, 24 nM and 9 nM.
Taken in the same sequence, the figures for `COc1ccc(-c2c3ncc(C(F)(F)F)cc3nn2-c2ccccn2)cn1` [Example 186, 3-(6-methoxypyridin-3-yl)-2-pyridin-2-yl-6-(trifluoromethyl)-2H-pyrazolo[4,3-b]pyridine] were above 10000 nM, 16 nM and 9 nM.
On to `COc1ccc(-c2c(-c3ccc(F)cn3)nn3cc(C(F)(F)F)cnc23)cn1` [Example 192, 2-(5-fluoropyridin-2-yl)-3-(6-methoxypyridin-3-yl)-6-(trifluoromethyl)pyrazolo[1,5-a]pyrimidine], for which the IC50 in assay [1] was above 10000 nM; in assay [2], 60 nM; in assay [3], 27 nM.
